{
  "source": "patent US7534808B2",
  "about": "“Indolylmaleimide derivatives” (priority 2002, dated 2009)",
  "key": {"Human recombinant PKCθ": {"target": "Human recombinant PKCθ (Homo sapiens, UniProt Q04759)", "sequence (Q04759 whole entry, canonical isoform)": "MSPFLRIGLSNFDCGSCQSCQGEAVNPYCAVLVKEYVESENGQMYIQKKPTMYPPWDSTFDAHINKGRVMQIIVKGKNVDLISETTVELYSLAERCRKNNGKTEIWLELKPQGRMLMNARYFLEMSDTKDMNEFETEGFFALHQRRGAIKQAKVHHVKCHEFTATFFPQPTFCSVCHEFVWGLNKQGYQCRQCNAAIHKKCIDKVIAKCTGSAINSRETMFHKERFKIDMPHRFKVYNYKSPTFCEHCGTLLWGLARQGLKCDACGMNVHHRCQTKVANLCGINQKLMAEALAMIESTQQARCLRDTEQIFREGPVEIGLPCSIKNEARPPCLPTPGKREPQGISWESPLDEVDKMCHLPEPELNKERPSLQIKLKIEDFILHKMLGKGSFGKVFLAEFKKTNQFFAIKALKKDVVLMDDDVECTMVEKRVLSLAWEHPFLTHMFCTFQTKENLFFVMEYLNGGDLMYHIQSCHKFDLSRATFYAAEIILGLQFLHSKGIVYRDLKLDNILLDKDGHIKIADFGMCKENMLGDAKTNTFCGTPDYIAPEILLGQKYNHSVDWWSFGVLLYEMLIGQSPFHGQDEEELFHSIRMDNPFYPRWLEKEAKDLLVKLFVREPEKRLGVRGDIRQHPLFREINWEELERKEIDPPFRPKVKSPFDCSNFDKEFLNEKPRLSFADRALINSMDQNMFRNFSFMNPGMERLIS", "assay": "Protein Kinase C θ Assay", "type": "biochemical", "procedure": "(§1) The compounds of formula I are tested for their activity on different PKC isoforms according to a published method (D. Geiges et al. Biochem. Pharmacol. 1997; 53:865-875) The assay is performed in a 96-well polypropylene microtiterplate (Costar 3794) that has been previously siliconized with Sigmacote (Sigma SL-2). The reaction mixture (50 μl) contains 10 μl of the relevant PKC isozyme together with 25 μl of the test compound and 15 μl of a mix solution that contains 200 μg/ml protamine sulfate, 10 mM Mg(NO3)2, 10 μM ATP (Boehringer 519987) and 3750 Bq of ^33P-ATP (Hartmann Analytic SFC301, 110TBq/mmol) in 20 mM Tris-buffer pH 7.4+0.1% BSA. Incubation is performed for 15 min at 32° C. in a microtiterplate shaking incubator (Biolabo Scientific Instruments). Reaction is stopped by adding 10 μl of 0.5 M Na2EDTA, pH 7.4. 50 μl of mixture are pipetted onto a pre-wetted phosphocellulose paper (Whatmann 3698-915) under gentle pressure. Non-incorporated ATP is washed away with 100 μl bi-dist H2O. The paper is washed twice in 0.5% H3PO4 for 15 min followed by 5 min in EtOH. Thereafter the paper is dryed and placed in an omnifilter (Packard 6005219), and overlayed with 10 μl/well of Microscint-O (Packard 6013611) before counting in a Topcount radioactivity counter (Packard). […] IC50 values are calculated from the graph by sigmoidal curve fitting. […]"}, "Human recombinant PKCε": {"target": "T1, Human recombinant PKCε (Homo sapiens, UniProt Q02156)", "T1 construct": "purchased Oxford Biomedical Research", "T1 sequence (Q02156 1-737)": "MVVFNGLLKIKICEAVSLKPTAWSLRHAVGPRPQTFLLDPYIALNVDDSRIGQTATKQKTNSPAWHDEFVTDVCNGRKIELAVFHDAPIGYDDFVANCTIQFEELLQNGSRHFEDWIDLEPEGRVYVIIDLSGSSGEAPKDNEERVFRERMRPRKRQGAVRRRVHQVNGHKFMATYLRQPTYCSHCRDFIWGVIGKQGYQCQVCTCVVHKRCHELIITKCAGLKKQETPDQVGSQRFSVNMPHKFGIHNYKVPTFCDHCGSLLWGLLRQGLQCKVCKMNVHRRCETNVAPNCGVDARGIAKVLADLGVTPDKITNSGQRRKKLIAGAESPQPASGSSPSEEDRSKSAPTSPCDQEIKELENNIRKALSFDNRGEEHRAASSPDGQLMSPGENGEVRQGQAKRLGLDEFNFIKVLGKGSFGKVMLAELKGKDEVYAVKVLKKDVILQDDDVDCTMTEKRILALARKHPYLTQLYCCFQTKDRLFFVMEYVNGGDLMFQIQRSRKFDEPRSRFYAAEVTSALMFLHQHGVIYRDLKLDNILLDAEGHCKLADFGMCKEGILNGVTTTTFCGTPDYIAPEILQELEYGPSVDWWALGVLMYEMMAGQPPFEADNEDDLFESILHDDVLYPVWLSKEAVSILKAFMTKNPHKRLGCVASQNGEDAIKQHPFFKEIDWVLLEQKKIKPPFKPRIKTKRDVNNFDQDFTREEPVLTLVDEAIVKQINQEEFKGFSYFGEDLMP", "assay": "Protein Kinase Cε Assay", "type": "biochemical", "procedure": "as §1"}},
  "data": [
    {"molecule": "Cc1cccc2c(C3=C(c4nc(N5CCNC6(CC6)C5)cc5ccccc45)C(=O)NC3=O)c[nH]c12", "note": "[Example 69, 3-[3-(4,7-Diaza-spiro[2.5]oct-7-yl)-isoquinolin-1-yl]-4-(7-methyl-1H-indol-3-yl)-pyrrole-2,5-dione]", "values": [
      {"measurement": "IC50", "setting": "Human recombinant PKCθ", "value": 12.1, "unit": "nM"},
      {"measurement": "IC50", "setting": "Human recombinant PKCε", "value": 18, "unit": "nM"}
    ]}
  ]
}
